This note sets out measurements from BindingDB's records for doi:10.1021/jm00001a011 (University of Auckland, 1995).

This assay in a line: Inhibitory concentration of the against pp60v-src tyrosine kinase obtained from v-src baculovirus-infected insect cells.

The structures appear in SMILES notation.

As to `COC(=O)c1ccc(NC(=O)c2c(SSc3c(C(=O)Nc4ccc(C(=O)OC)cc4)c4ccccc4n3C)n(C)c3ccccc23)cc1` [methyl 4-{1-methyl-2-[1-methyl-3-(4-methyloxycarbonylphenylcarbamoyl)-1H-2-indolyldisulfanyl]-1H-3-indolylcarboxamido}benzoate H2O], the IC50 (as a rule, the concentration that inhibits the measured activity by half) turned out to be 4.2 µM. As to `Cc1c(SSc2c(C)c3ccccc3n2C)n(C)c2ccccc12` [di(1,3-dimethyl-1H-2-indolyl) disulfide], the IC50 was > 50 µM. The figure for `CN(C)C(=O)c1c(SSc2c(C(=O)N(C)C)c3ccccc3n2C)n(C)c2ccccc12` [1,3N,3N-trimethyl-2-(3-dimethylcarbamoyl-1-methyl-1H-2-indolyldisulfanyl)-1H-3-indolecarboxamide0.5 H2O] is 0.5 µM; for `Cn1c(SSc2c(C(=O)NCC(O)CO)c3ccccc3n2C)c(C(=O)NCC(O)CO)c2ccccc21` (configuration not stated) [3N-(2,3-dihydroxypropyl)-2-[3-(2,3-dihydroxypropylcarbamoyl)-1-methyl-1H-2-indolyldisulfanyl]-1-methyl-1H-3-indolecarboxamide] it is 22.5 µM. `Cn1c(SSc2c(C(=O)NCc3ccccc3)c3ccccc3n2C)c(C(=O)NCc2ccccc2)c2ccccc21` [3N-benzyl-2-(3-benzylcarbamoyl-1-methyl-1H-2-indolyldisulfanyl)-1-methyl-1H-3-indolecarboxamide] came in with an IC50 of 8 µM. As for `O=C(NCc1ccccc1)c1c(SSc2[nH]c3ccccc3c2C(=O)NCc2ccccc2)[nH]c2ccccc12` [3N-benzyl-2-(3-benzylcarbamoyl-1H-2-indolyldisulfanyl)-1H-3-indolecarboxamide], the IC50 is 16.3 µM. The figure for `CCn1c(SSc2c(C(=O)Nc3ccccc3)c3ccccc3n2CC)c(C(=O)Nc2ccccc2)c2ccccc21` [3N-phenyl-1-ethyl-2-(1-ethyl-3-phenylcarbamoyl-1H-2-indolyldisulfanyl)-1H-3-indolecarboxamide] is > 100 µM. The figure for `Cn1c(SSc2c(C(=O)Nc3cccc(C(=O)O)c3)c3ccccc3n2C)c(C(=O)Nc2cccc(C(=O)O)c2)c2ccccc21` [3-{2-[3-(3-carboxyphenylcarbamoyl)-1-methyl-1H-2-indolyldisulfanyl]-1-methyl-1H-3-indolylcarboxamido}benzoic acid0.5 H2O] is 5.3 µM; for `O=C(O)CCc1c(SSc2[nH]c3ccccc3c2CCC(=O)O)[nH]c2ccccc12` [2,2 -Dithiobis(1H-indole-3-propanoic acid)] it is 5.1 µM.

For `Cn1c(SSc2c(C(=O)Nc3ccccc3C(=O)O)c3ccccc3n2C)c(C(=O)Nc2ccccc2C(=O)O)c2ccccc21` [2-{2-[3-(2-carboxyphenylcarbamoyl)-1-methyl-1H-2-indolyldisulfanyl]-1-methyl-1H-3-indolylcarboxamido}benzoic acid2.0 H2O], the concentration for half-maximal inhibition (IC50) was found to be 3.5 µM. In the case of `COC(=O)c1ccc(C(=O)c2c(SSc3c(C(=O)c4ccc(C(=O)OC)cc4)c4ccccc4n3C)n(C)c3ccccc23)cc1` [methyl 4-{1-methyl-2-[1-methyl-3-(4-methyloxycarbonylbenzoyl)-1H-2-indolyldisulfanyl]-1H-3-indolylcarbonyl}benzoate], the IC50 came to 7.1 µM. The figure for `Cn1c(SSc2c(C(N)=O)c3ccccc3n2C)c(C(N)=O)c2ccccc21` [2-(3-carbamoyl-1-methyl-1H-2-indolyldisulfanyl)-1-methyl-1H-3-indolecarboxamide0.5 H2O] is 0.8 µM; for `Cn1c(SSc2c(C(=O)Nc3cccs3)c3ccccc3n2C)c(C(=O)Nc2cccs2)c2ccccc21` [3N-(2-thienyl)-1-methyl-2-[1-methyl-3-(2-thienylcarbamoyl)-1H-2-indolyldisulfanyl]-1H-3-indolecarboxamide] it is > 50 µM. `COC(=O)c1ccccc1NC(=O)c1c(SSc2c(C(=O)Nc3ccccc3C(=O)OC)c3ccccc3n2C)n(C)c2ccccc12` [methyl 2-{1-methyl-2-[1-methyl-3-(2-methyloxycarbonylphenylcarbamoyl)-1H-2-indolyldisulfanyl]-1H-3-indolylcarboxamido}benzoate0.5 H2O] yielded an IC50 of 15.6 µM. On to `Cn1c(SSc2c(C(=O)c3ccc(C(=O)O)cc3)c3ccccc3n2C)c(C(=O)c2ccc(C(=O)O)cc2)c2ccccc21` [4-{2-[3-(4-carboxybenzoyl)-1-methyl-1H-2-indolyldisulfanyl]-1-methyl-1H-3-indolylcarbonyl}benzoic acid2 H2O], for which half-maximal inhibition (IC50) was put at 4 µM. The figure for `Cn1c(SSc2c(C(=O)Nc3cccnc3)c3ccccc3n2C)c(C(=O)Nc2cccnc2)c2ccccc21` [3N-(3-pyridyl)-1-methyl-2-[1-methyl-3-(3-pyridylcarbamoyl)-1H-2-indolyldisulfanyl]-1H-3-indolecarboxamide] is > 50 µM.

Turning to `COC(=O)c1cccc(NC(=O)c2c(SSc3c(C(=O)Nc4cccc(C(=O)OC)c4)c4ccccc4n3C)n(C)c3ccccc23)c1` [methyl 3-{1-methyl-2-[1-methyl-3-(3-methyloxycarbonylphenylcarbamoyl)-1H-2-indolyldisulfanyl]-1H-3-indolylcarboxamido}benzoate], the IC50 is 5.4 µM. `Cn1c(SSc2c(C(=O)NCC(=O)O)c3ccccc3n2C)c(C(=O)NCC(=O)O)c2ccccc21` [({2-[3-(Carboxymethyl-carbamoyl)-1-methyl-1H-indol-2-yldisulfanyl]-1-methyl-1H-indole-3-carbonyl}-amino)-acetic acid]: the IC50 stood at 1 µM. In the case of `Cn1c(SSc2c(C(=O)Nc3ccc(C(=O)O)cc3)c3ccccc3n2C)c(C(=O)Nc2ccc(C(=O)O)cc2)c2ccccc21` [4-{2-[3-(4-carboxyphenylcarbamoyl)-1-methyl-1H-2-indolyldisulfanyl]-1-methyl-1H-3-indolylcarboxamido}benzoic acid H2O] it was 4.3 µM; in that of `c1ccc(-c2c(SSc3[nH]c4ccccc4c3-c3ccccc3)[nH]c3ccccc23)cc1` [di(3-phenyl-1H-2-indolyl) disulfide], > 100 µM; in that of `O=C(Nc1ccccc1)c1c(SSc2[nH]c3ccccc3c2C(=O)Nc2ccccc2)[nH]c2ccccc12` [3N-phenyl-2-(3-phenylcarbamoyl-1H-2-indolyldisulfanyl)-1H-3-indolecarboxamide], 7.6 µM.

With `COC(=O)c1ccc(CNC(=O)c2c(SSc3c(C(=O)NCc4ccc(C(=O)OC)cc4)c4ccccc4n3C)n(C)c3ccccc23)cc1` [methyl 4-{1-methyl-2-[1-methyl-3-(4-methyloxycarbonylbenzylcarbamoyl)-1H-2-indolyldisulfanyl]-1H-3-indolylcarboxamidomethyl}benzoate0.5 H2O], inhibition was half-maximal at 2.5 µM (IC50).
